2 substances from US12433935B2, “Producing method of mesenchymal stem cell for prevention or treatment of brain neuronal disease including ghrelin treatment and use thereof” (Samsung Life Public Welfare Foundation, priority 2020, dated 2025) can be followed below.

For one assay, the system named is AgRP gene. As to the kind of experiment: AgRP expression in mesenchymal stem cells (WJ-MSC) treated with ghrelin, real-time PCR. The assay is classed as cell-based, human. The procedure:
An experiment was conducted to identify the effect on the expression of AgRP (Agouti related peptide) known as a therapeutic agent for brain neuronal disease such as Alzheimer's disease in mesenchymal stem cells when the mesenchymal stem cells were directly treated with ghrelin. WJ-MSCs were thawed in a 175T flask and stabilized for 3 days, and then cultured for 2 days in MEM alpha medium (Gibco, 12571063) to which 10% FBS (Biowest, S1480) and 5 μg/ml gentamicin were added. Thereafter, the WJ-MSCs were seeded, at 0.8×10^6, on a 6-well plate under 10% FBS conditions and incubated for 1 day. After the incubation, the WJ-MSCs were treated with human recombinant ghrelin (Phoenix Pharmaneuticals, 031-30) at concentrations of 0, 10 pM, 1 nM, and 100 nM, respectively, under FBS-free conditions. Cells were collected after 6 and 12 hours, respectively. The collected WJ-MSC was treated with Trizol, and mRNA was extracted therefrom. Then, real-time PCR analysis thereof was performed using human AgRP Primer. The results of treatment of the cells with human recombinant ghrelin at various concentrations for 6 hours are shown in FIG. 2A. The results of treatment of the cells with human recombinant ghrelin at various concentrations for 12 hours are shown in FIG. 2B.

Another assay deals with mouse AgRP gene. Put plainly: AgRP expression in mHYPOE-N46 mouse hypothalamus cell line treated with ghrelin, real-time PCR. The class given is cell-based. Particulars: mHYPOE-N46 cells, 0, 10 pM, 1 nM, 100 nM, 6 or 12 hours, primers mAgRP1 and mAgRP2 (FIG. 3A-3D). On the procedure: An experiment was conducted to identify the change in AgRP expression level when the mouse hypothalamus cell line was directly treated with the mouse/rat recombinant ghrelin. Specifically, mHYPOE-N46 mouse hypothalamus cell line was thawed in a 175T flask and stabilized for 3 days, and then was incubated for two days in DMEM high glucose medium (Gibco, 11965-092) supplemented with 10% FBS (Biowest, 51480) and penicillin-streptomycin (Gibco, 15140122). Under 10% FBS conditions, the cells are seeded, at 0.8×10^6, in a 6 well plate and incubated for 1 day. After the incubation, the cells were treated with mouse/rat recombinant ghrelin (Phoenix Pharmaneuticals, 031-31) at concentrations of 0, 10 pM, 1 nM, and 100 nM, respectively, in FBS-free conditions. Cells were collected after 6 and 12 hours, respectively. The collected cells were treated with Trizol. mRNA was extracted therefrom. Then, real-time PCR analysis thereof was performed using two mouse AgRP primer pairs. […] After direct treatment of the cells with ghrelin for 6 or 12 hours, the expression of mAgRP was analyzed. In addition, the results of mouse AgRP expression analysis according to ghrelin treatment time using primer mAgRP2 are shown in FIG. 3C and FIG. 3D.
In general terms: Quantitative PCR measures a nucleic acid by following its amplification.

No end group written: not given here.

For “human recombinant ghrelin: human recombinant ghrelin (Phoenix Pharmaneuticals, 031-30); hormone that increases appetite (GSSFLSPEHQRVQQRKESKKPPAKLQPR; ends and bridges not checked; UniProt Q9UBU3 24-51, looked up)”, the “expression of AgRP gene” value in the assay on AgRP gene (WJ-MSC, 0, 10 pM, 1 nM, 100 nM, FBS-free, 6 hours and 12 hours (FIG. 2A, 2B)) is “increased based on the treatment concentration”. The “expression of AgRP” value in the assay with AgRP gene (WJ-MSC, 100 nM concentration, 6 and 12 hours) is listed as “significantly increased”.

With “mouse ghrelin: mouse/rat recombinant ghrelin (Phoenix Pharmaneuticals, 031-31) (GSSFLSPEHQKAQQRKESKKPPAKLQPR; ends and bridges not checked; UniProt Q9EQX0 24-51, looked up)”, the “expression of mouse AgRP gene” value in the assay with mouse AgRP gene is reported as “increased according to the concentration of ghrelin”.
